The source of these data is ChEMBL document CHEMBL3045990, “Inhibition of Cathepsin D protease activity by Punica granatum fruit peel extracts, isolates, and semisynthetic analogs” (Med Chem Res, 2013).

By IC50 is commonly meant the point on the concentration scale where inhibition reaches its midpoint.

The test system of one assay is MDA-MB-231. Put plainly: Cytotoxicity against Homo sapiens (human) MDA-MB-231 cells assessed as growth inhibition by MTT assay. The format is functional, cell-based.
In assay [1] the target is T1, Cathepsin D (Homo sapiens, UniProt P07339). Put plainly: Inhibition of cathepsin D (unknown origin) using hemoglobin as substrate after 30 min by spectrophotometric analysis.
The target of assay [2] is T1, Cathepsin D. Put plainly: Inhibition of cathepsin D (unknown origin) using hemoglobin as substrate at 20 ug/mL after 30 min by spectrophotometric analysis.

The structures appear in SMILES notation. ≈ marks a conversion by molar mass, not a printed value. Calls of active or inactive are those of the source. The rule behind the calls is not given here.

T1 sequence (P07339 65-162 limits assumed): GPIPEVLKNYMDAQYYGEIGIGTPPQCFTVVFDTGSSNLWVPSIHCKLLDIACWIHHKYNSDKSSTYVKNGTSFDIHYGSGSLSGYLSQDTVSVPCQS
T1 sequence (P07339 169-412 limits assumed): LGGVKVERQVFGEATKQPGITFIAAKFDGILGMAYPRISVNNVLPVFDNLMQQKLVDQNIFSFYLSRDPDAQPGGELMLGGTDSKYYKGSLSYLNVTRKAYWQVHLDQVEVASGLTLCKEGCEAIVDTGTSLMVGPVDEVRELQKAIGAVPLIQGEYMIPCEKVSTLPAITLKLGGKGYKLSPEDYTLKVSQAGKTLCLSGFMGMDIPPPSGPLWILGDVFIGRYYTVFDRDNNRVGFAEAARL

Consider `O=C(/C=C/C=C/c1ccc2c(c1)OCO2)N1CCCCC1` [PIPERINE], for which the concentration for half-maximal inhibition (IC50) was found to be 58.4 µg/mL (≈ 205 µM) in the assay with MDA-MB-231 (Homo sapiens, MDA-MB-231) and 42.3 µM against Cathepsin D [1].
`CC[C@H](CC[C@@H](C)[C@H]1CC[C@H]2[C@@H]3CC=C4C[C@@H](O)CC[C@]4(C)[C@H]3CC[C@]12C)C(C)C`: the inhibition entry on Cathepsin D [2] was “inactive”.
In the case of `COC(=O)[C@]12CC[C@@H](C)[C@H](C)[C@H]1C1=CC[C@@H]3[C@@]4(C)CC[C@H](O)C(C)(C)[C@@H]4CC[C@@]3(C)[C@]1(C)CC2` [METHYL URSOLATE], the “growth inhibition (GI)” value in the assay on MDA-MB-231 was less than 5%. On Cathepsin D [1], this compound gave an IC50 of 9.45 µM.
Regarding `C[C@H]1[C@H](C)CC[C@]2(C(N)=O)CC[C@]3(C)C(=CC[C@@H]4[C@@]5(C)CC[C@H](O)C(C)(C)[C@@H]5CC[C@]43C)[C@H]12`, on Cathepsin D [2], the inhibition entry is “inactive”.
On the same count and under the same terms, next, `CC(=O)O[C@H]1CC[C@]2(C)[C@H]3CC=C4[C@@H]5[C@@H](C)[C@H](C)CC[C@]5(C(=O)O)CC[C@@]4(C)[C@]3(C)CC[C@H]2C1(C)C`: “inactive”.
In the case of `C[C@H]1[C@H](C)CC[C@]2(C(=O)O)CC[C@]3(C)C(=CC[C@@H]4[C@@]5(C)CCC(=O)C(C)(C)[C@@H]5CC[C@]43C)[C@H]12` [URSONIC ACID], the “growth inhibition (GI)” value in the assay with MDA-MB-231 was less than 5%. The same compound gave an IC50 at Cathepsin D [1] of 14.1 µM.
Take `CC[C@H](CC[C@@H](C)[C@H]1CC[C@H]2[C@@H]3CC=C4CC(=O)CC[C@]4(C)[C@H]3CC[C@]12C)C(C)C` [BETA-SITOSTENONE]: it took 9.4 µM to reach half-maximal inhibition on Cathepsin D [1] (IC50).
Take `C[C@H]1[C@H](C)CC[C@]2(C(=O)O)CC[C@]3(C)C(=CC[C@@H]4[C@@]5(C)CC[C@H](O)C(C)(C)[C@@H]5CC[C@]43C)[C@H]12` [URSOLIC ACID]: the “growth inhibition (GI)” value with MDA-MB-231 is less than 5%. On Cathepsin D [1], this compound had an IC50 of 18.2 µM.
Turning to `CC[C@H](CC[C@@H](C)[C@H]1CC[C@H]2[C@@H]3CC=C4C[C@@H](OC(C)=O)CC[C@]4(C)[C@H]3CC[C@]12C)C(C)C`, the inhibition result at Cathepsin D [2] was “inactive”.
